This is an account of results in patent US9073929B2, “Aldosterone synthase inhibitors” (ElexoPharm GmbH, priority 2011, dated 2015).

Holding throughout (type): cell-based
Experiment [1] has as its target T1, human CYP11B1 (Homo sapiens, UniProt P15538).
T1 construct: expressed in transfected cells; host or cells: V79MZh11B1 cells
T1 sequence (P15538 25-503): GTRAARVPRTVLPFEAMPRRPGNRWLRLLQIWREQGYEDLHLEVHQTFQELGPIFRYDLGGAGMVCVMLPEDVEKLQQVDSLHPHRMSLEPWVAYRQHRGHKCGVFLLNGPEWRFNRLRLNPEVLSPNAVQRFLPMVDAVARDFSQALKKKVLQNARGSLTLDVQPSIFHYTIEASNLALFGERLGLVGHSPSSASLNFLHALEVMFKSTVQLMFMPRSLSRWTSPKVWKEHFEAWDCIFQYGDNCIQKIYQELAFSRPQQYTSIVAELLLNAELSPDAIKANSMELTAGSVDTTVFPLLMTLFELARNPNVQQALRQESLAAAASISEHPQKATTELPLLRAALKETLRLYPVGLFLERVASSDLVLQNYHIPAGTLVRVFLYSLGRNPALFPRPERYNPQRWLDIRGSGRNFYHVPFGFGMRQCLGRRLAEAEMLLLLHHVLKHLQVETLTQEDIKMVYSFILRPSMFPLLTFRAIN
The experiment can be described thus: V79-Human-CYP11B1 cell assay (cortisol HTRF). The following applies: V79-hCYP11B1 cells, 250 nM 11-deoxycortisol, 3 hours. The procedure:
Methods for V79-Human-CYP11B2 and V79-Human-CYP11B1 Assays: V79 cell lines stably expressing the either the human CYP11B2 or the human CYP11B1 enzyme were generated using a standard transfection protocol. V79 cells were transfected with plasmids pTriEx3-Hygro-hCyp11B2 or pTriEx3-Hygro-hCyp11B1 using Lipofectamine2000 reagent. […] Single cell clones were generated by infinite dilution in DMEM supplemented with 10% FBS and 400 μg/mL hygromycin until single colonies were obtained. […] For testing of inhibitors, cells were harvested at 80% confluency with 0.5% Trypsan-EDTA, washed once in PBS, and reconstituted in DMEM+0.1% BSA media at a cell concentration of 400,000 cells/mL. 25 μl of cells were added to a 384 well tissue culture treated plate and mixed with 0.25 μl of inhibitor or DMSO (1% final DMSO concentration) for 1 hour at 37° C., 5% CO2. […] The reaction was carried out for 3 hours at 37° C., 5% CO2 and was stopped by harvesting the supernatants. […] IC50's for the inhibitor were determined by plotting the amount of product formed against the concentration of inhibitor using sigmoidal dose-response curve (variable slope) fit in GraphPad.
(In general: TR-FRET usually uses a lanthanide donor and a delayed reading to cut background.)

Experiment [2] has as its target T2, human CYP11B2 (Homo sapiens, UniProt P19099).
T2 construct: expressed in transfected cells; host or cells: V79 cells (clone V79-hCYP11B2-CLE9)
T2 sequence (P19099 25-503): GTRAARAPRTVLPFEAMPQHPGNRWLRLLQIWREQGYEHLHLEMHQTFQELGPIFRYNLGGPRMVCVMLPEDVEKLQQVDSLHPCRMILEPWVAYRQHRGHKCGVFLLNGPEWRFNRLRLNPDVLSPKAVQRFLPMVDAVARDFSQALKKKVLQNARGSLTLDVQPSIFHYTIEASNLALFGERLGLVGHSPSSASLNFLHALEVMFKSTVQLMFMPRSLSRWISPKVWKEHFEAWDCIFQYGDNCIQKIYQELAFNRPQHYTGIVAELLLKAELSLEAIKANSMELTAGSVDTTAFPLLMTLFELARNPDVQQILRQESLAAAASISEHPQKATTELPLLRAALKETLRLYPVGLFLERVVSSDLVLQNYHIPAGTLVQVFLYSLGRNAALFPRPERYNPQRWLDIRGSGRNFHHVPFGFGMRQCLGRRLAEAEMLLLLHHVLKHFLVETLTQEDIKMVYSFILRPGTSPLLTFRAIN
The experiment can be described thus: V79-Human-CYP11B2 cell assay (aldosterone HTRF). The following applies: V79-hCYP11B2 cells, 125 nM 11-deoxycorticosterone, 3 hours. The procedure: Methods for V79-Human-CYP11B2 and V79-Human-CYP11B1 Assays:
V79 cell lines stably expressing the either the human CYP11B2 or the human CYP11B1 enzyme were generated using a standard transfection protocol. V79 cells were transfected with plasmids pTriEx3-Hygro-hCyp11B2 or pTriEx3-Hygro-hCyp11B1 using Lipofectamine2000 reagent. V79 cells that stably express the human CYP11B2 or human CYP11B1 enzyme were selected for and maintained in DMEM supplemented with 10% FBS and 400 μg/mL hygromycin for ˜2 weeks. Single cell clones were generated by infinite dilution in DMEM supplemented with 10% FBS and 400 μg/mL hygromycin until single colonies were obtained. Clones V79-hCYP11B2-CLE9 and V79-hCYP11B1-8C7, were determined to produce the most aldosterone and cortisol, respectively, and were selected for inhibitor screening. […] The amount of product in the supernatant (aldosterone for CYP11B2 assay and cortisol for the CYP11B1 assay) was measured using HTRF-based assay kit (Aldosterone HTRF-CisBio#64ALDPEB, Cortisol HTRF-CisBio #631DC002-CORT). IC50's for the inhibitor were determined by plotting the amount of product formed against the concentration of inhibitor using sigmoidal dose-response curve (variable slope) fit in GraphPad.

Experiment [3] addresses T2, human CYP11B2. The experiment can be described thus: V79-Human-CYP11B2 cell assay, modified protocol (600,000 cells/mL). The following applies: 0.30 μl inhibitor. As for the experimental part:
(§1) V79 cell lines stably expressing the either the human CYP11B2 or the human CYP11B1 enzyme were generated using a standard transfection protocol. V79 cells were transfected with plasmids pTriEx3-Hygro-hCyp11B2 or pTriEx3-Hygro-hCyp11B1 using Lipofectamine2000 reagent. V79 cells that stably express the human CYP11B2 or human CYP11B1 enzyme were selected for and maintained in DMEM supplemented with 10% FBS and 400 μg/mL hygromycin for ˜2 weeks. Single cell clones were generated by infinite dilution in DMEM supplemented with 10% FBS and 400 μg/mL hygromycin until single colonies were obtained. […] For testing of inhibitors, cells were harvested at 80% confluency with 0.5% Trypsan-EDTA, washed once in PBS, and reconstituted in DMEM+0.1% BSA media at a cell concentration of 400,000 cells/mL. 25 μl of cells were added to a 384 well tissue culture treated plate and mixed with 0.25 μl of inhibitor or DMSO (1% final DMSO concentration) for 1 hour at 37° C., 5% CO2. After pre-incubation with inhibitor, the reaction was initiated by adding 5 μl of substrate (final concentration of 125 nM 11-deoxycorticosterone for the CYP11B2 assay or 250 nM 11-deoxycortisol for the CYP11B1 assay). The reaction was carried out for 3 hours at 37° C., 5% CO2 and was stopped by harvesting the supernatants. The amount of product in the supernatant (aldosterone for CYP11B2 assay and cortisol for the CYP11B1 assay) was measured using HTRF-based assay kit (Aldosterone HTRF-CisBio#64ALDPEB, Cortisol HTRF-CisBio #631DC002-CORT). IC50's for the inhibitor were determined by plotting the amount of product formed against the concentration of inhibitor using sigmoidal dose-response curve (variable slope) fit in GraphPad.
(§2) For the CYP11B2 assay, cells were reconstituted in DMEM+0.1% BSA media at a cell concentration of 600,000 cells/mL and for the CYP11B1 assay cells were reconstituted in DMEM+0.1% BSA media at a cell concentration of 280,000 cells/mL. 25 μl of cells were added to a 384 well tissue culture treated plate and mixed with 0.30 μl of inhibitor or DMSO (1% final DMSO concentration) for 1 hour at 37° C., 5% CO2.

The target of experiment [4] is T1, human CYP11B1. As to the kind of experiment: V79-Human-CYP11B1 cell assay, modified protocol (280,000 cells/mL). The following applies: 0.30 μl inhibitor. As for the experimental part:
as §1, §2

Usually IC50 stands for the midpoint of a concentration-inhibition curve. A lower IC50 goes with greater potency in that assay. In experiment [1], `Cc1c(-c2cc(Cl)c3c(c2)CCc2nnc(C)n2-3)cncc1C(C)(O)C(F)(F)F` (stereo not shown) [Example 38, 1-(5-(9-chloro-1-methyl-4,5-dihydro-[1,2,4]triazolo[4,3-a]quinolin-7-yl)-4-methylpyridin-3-yl)-1,1,1-trifluoropropan-2-ol] displayed an IC50 of 527 nM.

As to `COC(=O)C1(c2cncc(-c3ccc4c(c3)CCc3nncn3-4)c2)CC1` [Step D, p 76, methyl 1-[5-(4,5-dihydro[1,2,4]triazolo[4,3-a]quinolin-7-yl)-3-pyridinyl]cyclopropanecarboxylate], the IC50 in experiment [2] was determined as 17 nM; in experiment [1], 157 nM.

In turn, `Cc1c(-c2cc(Cl)c3c(c2)CCc2nnc(C)n2-3)cncc1C(C)(O)C(F)(F)F` (stereo not shown) [Example 37, 1-(5-(9-chloro-1-methyl-4,5-dihydro-[1,2,4]triazolo[4,3-a]quinolin-7-yl)-4-methylpyridin-3-yl)-1,1,1-trifluoropropan-2-ol] showed an IC50 in experiment [1] of 69 nM.

For `Cc1nnc2n1-c1c(Cl)cc(-c3cnccc3C(F)(F)F)cc1CC2` [Example 83, 9-chloro-1-methyl-7-(4-(trifluoromethyl)pyridin-3-yl)-4,5-dihydro-[1,2,4] triazolo[4,3-a]quinoline], the IC50 is 22 nM in experiment [3] and > 30000 nM in experiment [4].

Compound `Cc1c(F)cncc1-c1cc(F)c2c(c1)CCc1nncn1-2` [Example 17, 9-fluoro-7-(5-fluoro-4-methylpyridin-3-yl)-4,5-dihydro-[1,2,4]triazolo[4,3a] quinoline] yielded an IC50 in experiment [1] of 1500 nM.
